From US20110059947A1, “ALPHA 7 NICOTINIC AGONISTS AND ANTIPSYCHOTICS” (Targacept, Inc., priority 2008, published 2011)

How the values were obtained:
db/db mice = assay: Plasma glucose and body weight in obese db/db mice; format: in vivo; conditions: 1 mg/kg
th(tk-)/th(tk-) mice [1] = assay: Prepulse inhibition (PPI) and acoustic startle in th(tk-)/th(tk-) and control mice; format: in vivo
th(tk-)/th(tk-) mice [2] = assay: Social behavior, nonsocial autogrooming and open field activity; format: in vivo; conditions: 1 mg/kg i.p.
Protocol: B. […] On testing days, each subject received three tests: a social behavior test with a female, a social behavior test with a male, and an open-field test. There was a 30-minute interval between each test. Social behavior was tested using a variant of the resident-intruder paradigm, in which a stimulus animal was introduced into the subject's homecage for three minutes. Prior to testing the subjects' home cages were not changed for at least four days to allow them to establish the cage as their territory. Female stimulus animals were singly-housed, randomly cycling C57BI/6Js (Jackson Laboratories, Bar Harbor, Me.). Each subject was tested with a different stimulus animal and each stimulus animal was used only once per testing day. Male stimulus animals were singly-housed C57BI/6Js (Jackson Laboratories, Bar Harbor, Me.). Each subject was tested with a different stimulus animal and each stimulus animal was used only once per testing day. A stimulus female was placed into the cage of wild-type (n=8) and tk-/- (n=8) subjects. After three minutes, the stimulus female was removed. Thirty minutes later a stimulus male was placed into the subject's homecage. […] The behavior of the subject was quantified from the videotape using the Observer Mobile (Noldus Information Technologies, Sterling, Va.). […] Movement was analyzed in detail using the Clever Sys. […]

Sprague-Dawley rats = assay: Apomorphine-induced impairment of pre-pulse inhibition; format: in vivo, rat; conditions: haloperidol 0.3 mg/kg i.p., apomorphine 1.0 mg/kg s.c., p<0.001
[3] = db/db mice with fat diet, vs vehicle-treated mice

SMILES: Cc1ccc(C(=O)N[C@@H]2C3CCN(CC3)[C@H]2Cc2cccnc2)s1 [Compound B, (2S,3R)—N-(2-((3-pyridinyl)methyl)-1-azabicyclo[2.2.2]oct-3-yl)-5-methylthiophene-2-carboxamide]
- blood glucose levels (db/db mice; [3]): significantly decreases
- body weight gain (db/db mice; [3]): significantly decreases
- time at which effects on glucose and weight gain become apparent (db/db mice; db/db mice, weeks of treatment): 6 weeks
- sensory gating (PPI and acoustic startle response) (th(tk-)/th(tk-) mice [1]; control (normal) mice, Compound B): no effect on control
- deficits in sensory gating (PPI and acoustic startle response) (th(tk-)/th(tk-) mice [1]; th(tk-)/th(tk-) mice, Compound B (0.1 and 1.0 mg/kg analyzed)): reverse deficits in sensory gating

SMILES: COc1cccc([C@H](O)C2CCN(CCc3ccc(F)cc3)CC2)c1OC [Compound M100907]
- time spent investigating the stimulus animal (th(tk-)/th(tk-) mice [2]; TK- mice): significantly increased
- investigation time of stimulus animal (th(tk-)/th(tk-) mice [2]; wild-type animals): no effect on investigation time
- PPI (th(tk-)/th(tk-) mice [1]; control mice, M100907 any dose): no effect at any dose
- startle response (th(tk-)/th(tk-) mice [1]; control mice, M100907 any dose): no effect at any dose
- PPI (th(tk-)/th(tk-) mice [1]; transgenic mice, M100907 middle (0.1 mg/kg) and high (1 mg/kg) doses vs vehicle): increases of PPI
- startle response (th(tk-)/th(tk-) mice [1]; treated transgenic groups vs vehicle, M100907): significant decrease of startle response

SMILES: CN1CCN(C2=Nc3cc(Cl)ccc3Nc3ccccc32)CC1 [clozapine]
- PPI (th(tk-)/th(tk-) mice [1]; clozapine 3 mg/kg): no effect
- startle response (th(tk-)/th(tk-) mice [1]; clozapine 3 mg/kg): no effect

SMILES: OCCN1CCN(CC/C=C2/c3ccccc3Sc3ccc(C(F)(F)F)cc32)CC1 [flupenthixol]
- startle response (th(tk-)/th(tk-) mice [1]; control mice, flupenthixol 1.0 mg/kg vs saline): decreased
- PPI (th(tk-)/th(tk-) mice [1]; control mice, flupenthixol 0.25, 0.5, 1.0 mg/kg): no effect of dose
- startle response (th(tk-)/th(tk-) mice [1]; th(tk-)/th(tk-) mice, flupenthixol 1.0 mg/kg vs saline): decreased
- PPI (th(tk-)/th(tk-) mice [1]; th(tk-)/th(tk-) mice, flupenthixol 0.25, 0.5, 1.0 mg/kg, all three stimulus intensities, P<0.01): increased PPI

SMILES: O=C(CCCN1CCC(O)(c2ccc(Cl)cc2)CC1)c1ccc(F)cc1 [haloperidol, reference compound]
- PPI deficits induced by apomorphine (Sprague-Dawley rats): significantly reversed

SMILES: OCCOCCN1CCN(C2=Nc3ccccc3Sc3ccccc32)CC1 [quetiapine]
- startle response (th(tk-)/th(tk-) mice [1]; control mice, quetiapine any dose): no main effect
- PPI (th(tk-)/th(tk-) mice [1]; control mice, quetiapine any dose examined): no significant main effect
- PPI (th(tk-)/th(tk-) mice [1]; th(tk-)/th(tk-) mice, quetiapine 7.0 mg/kg, p<0.001): normalized the reduced PPI
- PPI (th(tk-)/th(tk-) mice [1]; th(tk-)/th(tk-) mice, quetiapine lower doses (below 7.0 mg/kg)): no effect
- startle response (th(tk-)/th(tk-) mice [1]; transgenic mice, all doses of quetiapine vs saline, p<0.05): significant decrease in startle response
- PPI, main effect (th(tk-)/th(tk-) mice [1]; transgenic th(tk-)/th(tk-) mice, quetiapine 3.0 mg/kg alone): no significant main effect
